# Measured values as given in publication PMC9428149, “Tackling recalcitrant Pseudomonas aeruginosa infections in critical illness via anti-virulence monotherapy” (Nature Communications, 2022).
# Experiments:
# [1] = tested on: pyocyanin production in PA14; assay: Pyocyanin production assay; settings: PA14; 50µM of each inhibitor (method says 10 μM); vs vehicle
# [2] = tested on: pqsA promoter (PA14 PpqsA-GFPASV); assay: pqsA-GFP reporter expression; type: cell-based, Pseudomonas aeruginosa; settings: PA14 PpqsA-GFPASV; 50µM per b210 (method b76 says 10 µM)
# Procedure: The expression levels of pqsA, which is representative of the pqsABCDE operon transcription, were monitored in the presence of the MvfR inhibitors using PA14 cells containing the PpqsA-GFPASV, a reporter construct of the pqsA promoter fused to a short half-life GFP gene in, such that quantitative quenching of fluorescence corresponds to pqsA promoter repression[22],[32],[48]. […] GFP fluorescence levels were measured at λex = 485 nm/λem = 535 nm after 10 seconds of shaking every 15 min up to 12 h. The IC50 of PpqsA-GFP expression levels was performed as above using the same 13 different concentrations (0.0122–50 μM) for each of the 13 compounds tested.
# [3] = tested on: MvfR-regulated small molecules in PA14; assay: Production of HAQs, 2-AA, DHQ and AA in PA14 cultures (LC-MS); settings: PA14, 50µM inhibitor; for % Production AA: anthranilic acid, precursor control
Structure (SMILES),% Production Pyocyanin [1],% Production pqsA-GFP [2],also measured
COc1cccc(NC(=O)CNc2ccc(F)cc2C)c1 [D32],92%,94%,–
Cc1cc(F)ccc1NCC(=O)Nc1ccc(N2CCOCC2)cc1 [D5],102%,100%,–
N#Cc1ccc(NC(=O)CC(=O)Cc2ccc(F)cc2)cc1 [D84],102%,–,–
N#Cc1ccc(NC(=O)CC(=O)Nc2ccc(NC(=O)C(F)(F)F)cc2)cc1 [D54],94%,85%,% Production 2-AA [3]: 117%; % Production DHQ [3]: 108%; % Production HHQ [3]: 103%; % Production HQNO [3]: 101%; % Production PQS [3]: 101%; % Production AA [3]: 82%
Cc1cc(F)ccc1NCC(=O)Nc1ccc(C(=O)N(C)C)cc1 [D19],109%,100%,–
Cc1cc(F)ccc1NCC(=O)Nc1cccc(Cl)c1 [D22],96%,71%,–
Cc1ccc(NCC(=O)Nc2ccc(C#N)cc2)cc1F [D28],60%,42%,–
O=C(CC(=O)Nc1ccc([N+](=O)[O-])cc1)Nc1ccc(Oc2ccccc2)cc1 [D58],6%,9%,% Production 2-AA [3]: 22%; % Production DHQ [3]: 45%; % Production HHQ [3]: 20%; % Production HQNO [3]: 23%; % Production PQS [3]: 19%; % Production AA [3]: 101%
N#Cc1ccc(NC(=O)CC(=O)Nc2ccc(I)cc2)cc1 [D56],13%,6%,% Production 2-AA [3]: 72%; % Production DHQ [3]: 136%; % Production HHQ [3]: 63%; % Production HQNO [3]: 69%; % Production PQS [3]: 62%; % Production AA [3]: 180%
CC(C)c1ccc(NCC(=O)Nc2ccc(C#N)cc2)cc1 [D33],59%,53%,–
Cc1cc(F)ccc1NCC(=O)Nc1ccccc1Br [D2],101%,96%,–
N#Cc1ccc(/C=C/C(=O)Nc2ccc(C#N)cc2)cc1 [D83],114%,–,–
Cc1cc(F)ccc1NCC(=O)Nc1cccc([N+](=O)[O-])c1 [D14],85%,77%,–
Cc1cc(NC(=O)CNc2ccc(F)cc2C)ccc1Br [D31],69%,47%,–
N#Cc1ccc(NC(=O)CNc2cccc(F)c2)cc1 [D6],91%,68%,–
N#Cc1ccc(NC(=O)CNc2ccc(Cl)cc2)cc1 [D16],43%,18%,–
O=C(CC(=O)Nc1ccc(C(F)(F)F)cc1)Nc1ccc(Oc2ccccc2)cc1 [D98],42%,29%,–
N#Cc1ccc(NC(=O)CC(Nc2ccc(Oc3ccccc3)cc2)C(F)(F)F)cc1 (stereo not drawn) [D93],91%,88%,–
Cc1cc(F)ccc1NCC(=O)Nc1ccc(Br)cc1C [D7],89%,70%,–
N#Cc1ccc(NC(=O)CC(O)Cc2ccc(F)cc2)cc1 (stereo not drawn) [D89],95%,–,–
N#Cc1ccc(NC(=O)CC(=O)c2ccc(F)cc2)cc1 [D76],77%,–,–

Structure (SMILES),% Production Pyocyanin [1],% Production pqsA-GFP [2],also measured
Cc1ccc(NC(=O)CNc2ccc(F)cc2C)c(Br)c1 [D12],108%,92%,–
N#Cc1ccc(NC(=O)C(F)(F)C(=O)Nc2ccc(C#N)cc2)cc1 [D97],94%,95%,–
N#Cc1ccc(NCC(=O)Nc2ccc(F)cc2)cc1 [D24],59%,26%,–
CC(F)(C(=O)Nc1ccc(C#N)cc1)C(=O)Nc1ccc(C#N)cc1 [D94],52%,85%,–
Cc1cc(F)ccc1NCC(=O)Nc1cccc(C#N)c1 [D13],100%,90%,–
Cc1cc(F)ccc1NCC(=O)Nc1cc(F)ccc1F [D10],90%,89%,–
Cc1ccc(NC(=O)CNc2ccc(F)cc2C)c(C)c1 [D21],113%,87%,–
Cc1ccc(F)cc1NCC(=O)Nc1ccc(C#N)cc1 [D18],69%,28%,–
N#Cc1ccc(NC(=O)C(F)C(=O)Nc2ccc(C#N)cc2)cc1 [D96],34%,42%,–
N#Cc1ccc(NC(=O)CC(=O)Nc2cccc(C#N)c2)cc1 [D75],49%,–,–
COc1ccc(NC(=O)CNc2ccc(F)cc2C)cc1 [D15],102%,87%,–
N#Cc1ccc(NC(=O)CC(=O)Nc2ccc(Oc3ccccc3)cc2)c(N)c1 [D92],4%,1%,–
Nc1cc([N+](=O)[O-])ccc1NC(=O)CC(=O)Nc1ccc(Oc2ccccc2)cc1 [D60],6%,–,–
Cc1cc(F)ccc1NCC(=O)Nc1ccc(N2CCCC2=O)cc1 [D9],107%,105%,–
N#Cc1ccc(NC(=O)CC(=O)Nc2ccc(C#N)nc2)cn1 [D91],43%,39%,–
N#Cc1ccc(NC(=O)C=CC(=O)Nc2ccc(F)cc2)cc1 [D86],88%,–,–
N#Cc1ccc(NC(=O)CC(=O)Nc2cccc(F)c2)cc1 [D72],30%,–,–
CCc1ccccc1NCC(=O)Nc1ccc(C#N)cc1 [D3],97%,92%,–
CC(=O)c1ccccc1NC(=O)CNc1ccc(F)cc1C [D30],91%,94%,–
N#Cc1ccc(NC(=O)CC(=O)Nc2ccc(C#N)cn2)cc1 [D78],14%,–,–
N#Cc1ccc(NC(=O)CNc2ccccc2F)cc1 [D25],97%,84%,–
